From US6649621B2, “Prevention or reversal of sensorineural hearing loss (SNHL) through biologic mechanisms” (The United States of America as represented by the …, priority 1997, dated 2003)
Entries after “also recorded” stand apart in the source; their conditions may differ.

Legend:
[1] = system: noise-induced cochlear damage; details: cited from earlier work
[2] = system: noise induced hearing loss; experiment: Oral rescue agent in an individual with noise induced hearing loss; type: in vivo, human; details: 70 mg/kg by mouth, then 35 mg/kg QID for seven days; one patient
Source text: FIG. 5 is a bar graph comparing the speech reception threshold values of an individual who suffered noise induced hearing loss before and after administration of an oral rescue agent. FIG. 6 is a bar graph comparing the word discrimination scores of an individual who suffered noise induced hearing loss before and after administration of an oral rescue agent. An Army Infantryman lost […] hearing protection in one ear during a live fire training evolution. […] received treatment in the form of ant initial dose of 70 mg/kg of L-N-acetyl cysteine (LNAC) by mouth followed by 35 mg/kg LNAC by mouth QID for seven days.

chinchilla model of SNHL = experiment: R-PIA on round window membrane, chinchilla 4 kHz octave band noise, evoked potential hearing thresholds; type: in vivo
Source text: (§1) FIG. 1 is a series of graphs which depicts our experimental work with R-PIA in a chinchilla model of SNHL. A 10^−4 M solution of R-PIA was placed on the round window membrane of chinchillas for thirty minutes and saline was placed as a control on round window membrane in the opposite-ear. After thirty minutes the fluids were removed, the surgical sites closed and the animals were exposed to 4 kHz octave band noise at 105 dB SPL for thirty minutes.

[3] = system: inner and outer hair cells; experiment: R-PIA on round window membrane, chinchilla 4 kHz octave band noise, inner and outer hair cell losses; type: in vivo; details: 10^-4 M on round window membrane
Source text: as §1, with “minutes. […] The details of this study have been submitted and recently accepted for publication in a peer-reviewed journal (5).” for “minutes.”

[4] = system: inner and outer hair cells; experiment: R-PIA on round window membrane, simulated M-16 impulse noise, missing hair cells; type: in vivo, Chinchilla; details: 10^-4 M on round window membrane 30 min, 50-salvo volleys, vs saline control ear
[5] = system: noise induced permanent hearing loss; experiment: R-PIA on round window membrane, impulse noise, frequency specific evoked potential threshold shifts; type: in vivo, Chinchilla; details: out to 20 days post-exposure
Source text: FIGS. 3 & 4 illustrate data from Chinchilla exposed to simulated M-16 rifle fire impulse noise (50-salvo volleys). These animals received R-PIA treatment as outlined above (by the application of a dilute (10^−4 molar) solution of R-PIA directly onto the round window membrane for thirty minutes) with saline as a control on the round window membrane of the opposite ear. FIGS. 3 and 4 depict the percentage of missing inner and outer hair cells quantified in the inner ears of animals euthanized after the noise exposure. […] The results of both these tests show the frequency specific evoked potential threshold shifts from the same Chinchilla prior to and after noise exposure (out to 20 days post-exposure).

[6] = system: idiopathic sensorineural hearing loss; experiment: Treatment of individuals with sudden idiopathic sensorineural hearing loss (oral conventional therapy, then topical round window microcatheter); type: in vivo, human; details: one patient each
Source text: FIG. 7 is a bar graph comparing the speech reception threshold values of an individual who suffered an idiopathic sensorineural hearing loss before and after administration of a topical rescue agent.
FIG. 8 is a bar graph comparing the word discrimination scores of an individual who suffered an idiopathic sensorineural hearing loss before and after administration of a topical rescue agent.
FIG. 9 is a bar graph comparing the speech reception threshold values of another individual who suffered an idiopathic sensorineural hearing loss before and after administration of a topical rescue agent.
FIG. 10 is a bar graph comparing the word discrimination scores of another individual who suffered an idiopathic sensorineural hearing loss before and after administration of a topical rescue agent.
A Army Sergeant noted the sudden onset of a severe hearing loss and tinnitus in their left ear. They were initially given one week of conventional therapy with oral prednisone and a trial of close observation. They had no response to this treatment regimen and two weeks after experiencing the hearing loss they were treated with topical methylprednisolone. The topical methylprednisolone was administered in a round window microcatheter (IntraEar Corporation, Denver, Colo.) via a method developed by our group. The methylprednisolone was given in a concentration of 125 mg/ml. […]

CCCCS(=N)(=O)CCC(N)C(=O)O (stereo not drawn) [BSO, buthionine sulfoximine]
hair cell damage and hearing loss associated with noise exposure ([1]; inhibition of GSH synthesis): enhances the hair cell damage and hearing loss associated with noise exposure

CC(=O)N[C@@H](CS)C(=O)O [LNAC, L-N-acetyl cysteine]
speech reception threshold [2]: complete recovery
word discrimination ability [2]: complete recovery

C[C@H](Cc1ccccc1)Nc1ncnc2c1ncn2[C@@H]1O[C@H](CO)[C@@H](O)[C@H]1O [R-PIA, R-N6-Phenylisopropyl adenosine]
permanent hearing threshold shift / permanent hearing loss (chinchilla model of SNHL; 10^-4 M on round window membrane 30 min, vs saline control ears): significantly less permanent hearing threshold shift in R-PIA treated ears compared to saline treated ears at 4, 8 and 16 kHz; also recorded: significant reduction in permanent hearing loss
recovery of hearing thresholds (chinchilla model of SNHL; 10^-4 M on round window membrane 30 min before 4 kHz octave band noise 105 dB SPL, days 0, 1, 2, 4 and 20, vs saline ear): faster and more complete recovery of hearing thresholds
inner hair cell losses ([3]; both conditions): minimal
reduction in outer hair cell loss ([3]; vs saline control ears): fourfold reduction; also recorded: four-fold reduction
inner and outer hair cell loss [4]: significant reduction of inner and outer hair cell loss
permanent hearing loss ([5]; vs ears that received no treatment): reduction of permanent hearing loss in R-PIA treated ears as compared to ears that received no treatment
permanent hearing loss ([5]; vs saline treated (control) ears, variety of frequencies): reduction of permanent hearing loss in R-PIA treated ears as compared to saline treated (control) ears

Oc1ncnc2[nH]ncc12 [allopurinol]
cochlear action potential and cochlear microphonic threshold shifts ([1]; given before and during damaging noise exposure): attenuate cochlear action potential and cochlear microphonic threshold shifts

C[C@]12C=CC(=O)C=C1CC[C@@H]1[C@@H]2C(=O)C[C@@]2(C)[C@H]1CC[C@]2(O)C(=O)CO [prednisone]
response of sudden hearing loss to conventional therapy [6]: no response
